We go through eight molecules from patent US20110245284A1, “Alkoxy- and Alkylthio-Substituted Anilinopyrimidines” (Bayer CropScience AG, priority 2008, published 2011).

SMILES strings stand for the structures.

The subject of series [1] is Venturia inaequalis. The series can be described thus: Venturia test (apple) / protective. It counts as in vivo. As to conditions: 240 h, active compound concentration 100 ppm, evaluation 10 days after inoculation, read-out: efficacy. The protocol:
After the spray coating has dried on, the plants are inoculated with an aqueous conidia suspension of the apple scab pathogen Venturia inaequalis and then remain for 1 day in an incubation cabinet at about 20° C. and 100% relative atmospheric humidity.

Series [2] concerns Alternaria solani. As to the kind of experiment: Alternaria test (tomato) / protective. It counts as in vivo. As to conditions: 72 h, active compound concentration 100 ppm, evaluation 3 days after inoculation, read-out: efficacy. The protocol:
The plants are then placed in an incubation cabinet at about 20° C. and 100% relative atmospheric humidity.

Series [3] relates to Leptosphaeria nodorum. The series can be described thus: Leptosphaeria nodorum test (wheat) / protective. It counts as in vivo. To be noted: Parastagonospora nodorum, active compound concentration 500 ppm, evaluation 7-9 days after inoculation, read-out: efficacy. As to the method:
Thereafter, the plants are placed in a greenhouse at 90% relative atmospheric humidity and a temperature of 22° C.

Series [4] has as its system Pyricularia oryzae. The series can be described thus: whole plant or invertebrate. The series is classed as in vivo. As to conditions: 120 h, read-out: efficacy.
The test system of series [5] is Rhizoctonia solani. The series can be described thus: Rhizoctonia test (rice) / protective. It counts as in vivo. To be noted: 96 h, active compound concentration 250 ppm, evaluation 4 days after inoculation, read-out: efficacy.
A short description of series [6]: logP by LC-MS on reversed-phase columns (C 18), method [b], acidic range pH 2.7. As to conditions: pH 2.7, log p. It counts as physicochemical. The protocol: (§1) The logP values were determined in accordance with EEC Directive 79/831 Annex V.A8 by HPLC (High Performance Liquid Chromatography) on reversed-phase columns (C 18), using the methods below:
[b] The LC-MS determination in the acidic range is carried out at pH 2.7 using the mobile phases 0.1% aqueous formic acid and acetonitrile (contains 0.1% formic acid), linear gradient from 10% acetonitrile to 95% acetonitrile.

Series [7] has as its system Cochliobolus miyabeanus. The series can be described thus: Cochliobolus test (rice) / protective. To be noted: Bipolaris oryzae, in Oryza sativa, 96 h, read-out: efficacy.
Procedure: Cochliobolus Test (Rice)/Protective • Solvent: 28.5 parts by weight of acetone • Emulsifier: 1.5 parts by weight of alkylaryl polyglycol ether
1 day after the treatment, the plants are inoculated with an aqueous spore suspension of Cochliobolus miyabeanus. The plants are then placed in a greenhouse at 100% relative atmospheric humidity and 25° C.
Evaluation is carried out 4 days after the inoculation.
The test system of series [8] is Sphaerotheca fuliginea. The series can be described thus: Sphaerotheca test (cucumber) / protective. The series is classed as in vivo. To be noted: Podosphaera fuliginea, 168 h, active compound concentration 500 ppm, evaluation 7 days after inoculation, read-out: efficacy. The protocol: The plants are subsequently placed in a greenhouse at 70% relative atmospheric humidity and a temperature of 23° C.

Series [9] can be described thus: logP by LC-MS on reversed-phase columns (C 18), method [c], neutral range pH 7.8. The series is classed as physicochemical. To be noted: pH 7.8. The protocol: as §1
[c] The LC-MS determination in the neutral range is carried out at pH 7.8 using the mobile phases 0.001 molar aqueous ammonium bicarbonate solution and acetonitrile, linear gradient from 10% acetonitrile to 95% acetonitrile.

Series [10] concerns Pyrenophora teres. The series can be described thus: Pyrenophora teres test (barley) / protective. To be noted: 192 h, active compound concentration 500 ppm, evaluation 8 days after inoculation, read-out: efficacy. The series is classed as in vivo. As to the method:
After the spray coating has dried on, the plants are sprayed with a spore suspension of Pyrenophora teres. The plants remain in an incubation cabinet for 48 hours at 20° C. and 100% relative atmospheric humidity.

Take `COCc1cccc(Nc2ncc(Cl)c(NC(C)C)n2)c1` [Example 26]: the pest or weed control at 100 ppm in series [1] and in series [2] was at least 70% each time. The pest or weed control at 500 ppm in series [3] is at least 70%. Besides, the pest or weed control at 250 ppm in series [4], in series [5] and in [7] was at least 80% in each case. The chromatographic logP in series [6] was 1.76.
`COC(C)c1cccc(Nc2ncc(Cl)c(NCC(F)(F)F)n2)c1` (stereo not drawn) [Example 83]: the pest or weed control at 100 ppm in series [1] and in [2] was at least 70% in each case. Besides, the pest or weed control at 500 ppm in [8] and in series [3] was at least 70% each time. In addition, the pest or weed control at 250 ppm in series [4], in series [5] and in series [7] was at least 80% throughout. Besides, the chromatographic logP in series [6] came out at 2.82; in series [9], 3.18.
In the case of `COC(C)c1cc(Nc2ncc(Cl)c(NC3CC3)n2)ccc1C` (stereo not drawn) [Example 92], the pest or weed control at 100 ppm in series [1] and in [2] was at least 70% each time. In addition, the pest or weed control at 500 ppm in [8] and in series [3] was at least 70% throughout. The pest or weed control at 250 ppm in series [4] and in series [7] was at least 80% each time. For the same molecule, the chromatographic logP in series [6] stood at 2.11; in series [9], 3.7.
Regarding `CCOCCOc1cccc(Nc2ncc(Cl)c(NC3CC3)n2)c1` [Example 93], the pest or weed control at 100 ppm in [1] and in series [2] was at least 70% in each case. Besides, the pest or weed control at 500 ppm in [8], in series [3] and in [10] was at least 70% in each case. Further, the pest or weed control at 250 ppm in [4] and in series [7] was at least 80% each time. In addition, the results for the chromatographic logP in series [6] and in series [9] were 2.13 and 3.3, respectively.
For the molecule `CCC[S+]([O-])c1cccc(Nc2ncc(Cl)c(NC3CCC3)n2)c1` (stereo not drawn) [Example 100], the pest or weed control at 100 ppm in series [1] and in series [2] was at least 70% in each case. Besides, the pest or weed control at 500 ppm in series [3] is at least 70%. In addition, the pest or weed control at 250 ppm in series [4], in [5] and in series [7] was at least 80% each time. The same molecule showed a chromatographic logP in series [6] of 2.09.
Take `CCCCSc1cccc(Nc2ncc(Cl)c(NC3CCC3)n2)c1` [Example 106]: the pest or weed control at 100 ppm in series [1] and in series [2] was at least 70% in each case. Besides, the pest or weed control at 500 ppm in [3] is at least 70%. For the same molecule, the pest or weed control at 250 ppm in [4], in [5] and in [7] was at least 80% in each case. Moreover, the chromatographic logP amounted to 4.28 in series [6] and 5.13 in series [9].
Turning to `CCS(=O)(=O)c1cccc(Nc2ncc(C(F)(F)F)c(NC3CC3)n2)c1` [Example 116], in series [1], the pest or weed control at 100 ppm is at least 70%. Also, the pest or weed control at 500 ppm in [8], in series [3] and in series [10] was at least 70% each time. Further, the pest or weed control at 250 ppm in [4], in series [5] and in series [7] was at least 80% each time. Also, the results for the chromatographic logP in series [6] and in [9] were 2.74 and 2.8, respectively.
In the case of `CCCCS(=O)(=O)c1cccc(Nc2ncc(C(F)(F)F)c(NC3CC3)n2)c1` [Example 121], the pest or weed control at 100 ppm in series [1] and in [2] was at least 70% each time. Besides, the pest or weed control at 500 ppm in series [8] and in series [3] was at least 70% in each case. Moreover, the pest or weed control at 250 ppm in [4], in [5] and in series [7] was at least 80% in each case. Moreover, the chromatographic logP in series [6] was 3.4; in series [9], 3.46.
